system: SFV-Rluc; settings: not given

| SMILES | SFV replication % left (surviving fraction, remaining percentage of SFV replication) [%] |
| --- | --- |
| CC(C)NCC(O)COc1ccc(CC(N)=O)cc1 (centres unmarked) [Atenolol] | 44.2 |

same assay, conditions: Supplementary Table 2, moderately active compounds (25 - 60% remaining), primary screen at 50 µM

| SMILES | % left (remaining SFV replication) [%] |
| --- | --- |
| O=C(c1ccccc1)c1cc2c(ccc3ccccc32)oc1=O [NC-006] | 39.9 |
| Cc1cc(=O)oc2c3c4c(cc12)CCCN4CCC3 [NC-015] | 34.6 |
| CCN(CC)c1ccc2cc(-c3nc4ccccc4[nH]3)c(=O)oc2c1 [NC-017] | 37.3 |
| O=c1c(-c2ccc(O)cc2)coc2cc(O)cc(O)c12 [NC-042] | 45.6 |
| O=C(O)c1ccc(O)cc1O [NC-055] | 32.1 |
| COc1cc(-c2oc3cc(O)cc(O)c3c(=O)c2O)ccc1O [NC-056] | 28.9 |
| CCN(CC)CCCC(C)Nc1cc(/C=C/c2ccccc2Cl)nc2cc(Cl)ccc12 (centres unmarked) [NC-066] | 45.8 |
| CC(Cc1ccc(O)c(O)c1)C(C)Cc1ccc(O)c(O)c1 (centres unmarked) [NC-071] | 35.6 |

same assay, conditions: primary screening of chemical libraries; compounds tested at 50 µM

| SMILES | SFV replication % left [%] |
| --- | --- |
| COc1ccc(-c2cc(=O)c3c(O)cc(O)cc3o2)cc1 [NC-001] | 78.1 |
| O=c1cc(-c2ccccc2)oc2c1ccc1ccccc12 [NC-002] | 14.6 |
| O=c1cc(-c2ccc(O)cc2)oc2cc(O)cc(O)c12 [NC-003] | 18.0 |
| O=C1O[C@H]([C@@H](O)CO)C(O)=C1O [NC-004] | 81.4 |
| O=C(O)c1ccccc1 [NC-005] | 71.6 |
| O=C(c1ccccc1)c1cc2c(ccc3ccccc32)oc1=O [NC-006] | 39.9 |
| O=c1oc2cc(O)ccc2cc1-c1nc2ccccc2o1 [NC-007] | 21.0 |
| COc1c2ccoc2cc2oc(=O)ccc12 [NC-008] | 46.8 |
| O=C(O)/C=C/c1ccc(O)c(O)c1 [NC-010] | 98.7 |
| Oc1cc(O)c2c(c1)O[C@H](c1ccc(O)c(O)c1)[C@@H](O)C2 [NC-011] | 64.5 |
| Oc1ccccc1O [NC-012] | 58.4 |
| O=c1cc(-c2ccccc2)oc2cc(O)cc(O)c12 [NC-013] | 18.1 |
| O=C(O)/C=C/c1ccccc1O [NC-014] | 77.6 |
| Cc1cc(=O)oc2c3c4c(cc12)CCCN4CCC3 [NC-015] | 34.6 |
| CCN(CC)c1ccc2cc(-c3nc4ccccc4n3C)c(=O)oc2c1 [NC-016] | 12.3 |
| CCN(CC)c1ccc2cc(-c3nc4ccccc4[nH]3)c(=O)oc2c1 [NC-017] | 37.3 |
| O=c1ccc2ccccc2o1 [NC-018] | 68.8 |
| Oc1cc(O)c2cc(O)c(-c3ccc(O)c(O)c3)[o+]c2c1.[Cl-] [NC-019] | 24.5 |
| O=c1c(-c2ccc(O)cc2)coc2cc(O)ccc12 [NC-020] | 76.6 |
| O=c1ccc2ccc(O)c(O)c2o1 [NC-021] | 81.7 |
| CCN(CC)c1ccc2cc(C(=O)c3cccs3)c(=O)oc2c1 [NC-022] | 15.6 |
| O=C(O)c1cccc(O)c1O [NC-023] | 93.1 |
| O=C(O)c1cc(O)ccc1O [NC-024] | 127.8 |
| O=C(O)c1c(O)cccc1O [NC-025] | 118.7 |
| O=C(O)c1ccc(O)c(O)c1 [NC-026] | 124.5 |
| O=C(O)c1cc(O)cc(O)c1 [NC-027] | 6.9 |
| Cc1ccc(C)c(O)c1 [NC-029] | 84.6 |

| SMILES | SFV replication % left [%] |
| --- | --- |
| CN(C)c1cccc2c(S(=O)(=O)Cl)cccc12 [NC-032] | 4.6 |
| O=c1oc2c(O)c(O)cc3c(=O)oc4c(O)c(O)cc1c4c23 [NC-033] | 64.9 |
| Oc1cc(O)c2c(c1)O[C@H](c1ccc(O)c(O)c1)[C@H](O)C2 [NC-034] | 97.1 |
| O=C(O[C@@H]1Cc2c(O)cc(O)cc2O[C@@H]1c1ccc(O)c(O)c1)c1cc(O)c(O)c(O)c1 [NC-035] | 94.8 |
| Oc1cc(O)c2c(c1)O[C@H](c1cc(O)c(O)c(O)c1)[C@H](O)C2 [NC-036] | 101.9 |
| O=C(O[C@@H]1Cc2c(O)cc(O)cc2O[C@@H]1c1cc(O)c(O)c(O)c1)c1cc(O)c(O)c(O)c1 [NC-037] | 155.3 |
| CCOc1ccc2c(c1)C(C)=CC(C)(C)N2 [NC-038] | 96.4 |
| COc1cc(/C=C/C(=O)O)ccc1O [NC-039] | 63.4 |
| O=c1cc(-c2ccccc2)oc2ccccc12 [NC-040] | 52.2 |
| O=C(O)c1cc(O)c(O)c(O)c1 [NC-041] | 148.8 |
| O=c1c(-c2ccc(O)cc2)coc2cc(O)cc(O)c12 [NC-042] | 45.6 |
| C[C@]12CC[C@H](O)C[C@H]1CC[C@@H]1[C@@H]2CC[C@]2(C)[C@@H](C3=CC(=O)OC3)[C@@H](O)C[C@]12O [NC-043] | 102.7 |
| O=c1c(O)c(-c2ccc(O)c(O)c2)oc2c(O[C@@H]3O[C@H](CO)[C@@H](O)[C@H](O)[C@H]3O)c(O)cc(O)c12 [NC-044] | 105.8 |
| O=C(OC[C@H]1OC(O)[C@@](O)(COC(=O)c2cc(O)c(O)c(O)c2)[C@@H]1O)c1cc(O)c(O)c(O)c1 (some centres unmarked) [NC-045] | 14.7 |
| COc1ccc([C@@H]2CC(=O)c3c(O)cc(O[C@@H]4O[C@H](CO[C@@H]5O[C@@H](C)[C@H](O)[C@@H](O)[C@H]5O)[C@@H](O)[C@H](O)[C@H]4O)cc3O2)cc1O [NC-046] | 77.7 |
| O=C(CO)c1ccccc1 [NC-047] | 129.7 |
| CC(=O)c1cccc(O)c1 [NC-048] | 125.8 |
| CC(=O)c1ccc(O)cc1 [NC-049] | 29.4 |
| O=C(O)Cc1ccccc1O [NC-050] | 7.3 |
| O=C(O)Cc1cccc(O)c1 [NC-051] | 110.8 |
| O=C(O)Cc1ccc(O)cc1 [NC-052] | 103.6 |
| Oc1ccc(O)cc1 [NC-053] | 16.9 |
| CC(C)OC(=O)c1cc(O)c(O)c(O)c1 [NC-054] | 124.0 |
| O=C(O)c1ccc(O)cc1O [NC-055] | 32.1 |
| COc1cc(-c2oc3cc(O)cc(O)c3c(=O)c2O)ccc1O [NC-056] | 28.9 |
| O=c1c(O)c(-c2ccc(O)cc2)oc2cc(O)cc(O)c12 [NC-057] | 2.9 |
| COc1c2occc2c(OC)c2c(=O)cc(C)oc12 [NC-058] | 120.6 |

| SMILES | SFV replication % left [%] |
| --- | --- |
| CCCCCCCCCCCCOC(=O)c1cc(O)c(O)c(O)c1 [NC-059] | 12.3 |
| Oc1cc(O)c2c(c1)OC(c1ccc(O)c(O)c1)C(O)C2O (centres unmarked) [NC-060] | 136.3 |
| O=c1cc(-c2ccc(O)c(O)c2)oc2cc(O)cc(O)c12 [NC-061] | 71.3 |
| O=c1cc(-c2ccc(O)c(O)c2)oc2cc(O[C@@H]3O[C@H](CO)[C@@H](O)[C@H](O)[C@H]3O)cc(O)c12 [NC-062] | 17.8 |
| COc1cc(-c2[o+]c3cc(O)cc(O[C@@H]4O[C@H](CO)[C@@H](O)[C@H](O)[C@H]4O)c3cc2O[C@@H]2O[C@H](CO)[C@@H](O)[C@H](O)[C@H]2O)cc(OC)c1O.[Cl-] [NC-063] | 15.4 |
| COC(=O)c1cc(O)c(O)c(O)c1 [NC-064] | 67.8 |
| Cc1cc(=O)oc2cc(O)ccc12 [NC-065] | 12.0 |
| CCN(CC)CCCC(C)Nc1cc(/C=C/c2ccccc2Cl)nc2cc(Cl)ccc12 (centres unmarked) [NC-066] | 45.8 |
| O.O.O=c1c(O)c(-c2ccc(O)cc2O)oc2cc(O)cc(O)c12 [NC-067] | 82.9 |
| O=c1c(O)c(-c2cc(O)c(O)c(O)c2)oc2cc(O)cc(O)c12 [NC-068] | 2.0 |
| O=C1C[C@@H](c2ccc(O)cc2)Oc2cc(O)cc(O)c21 [NC-069] | -0.0736 |
| Cc1ccc(O)c(O)c1 [NC-070] | 111.1 |
| CC(Cc1ccc(O)c(O)c1)C(C)Cc1ccc(O)c(O)c1 (centres unmarked) [NC-071] | 35.6 |
| CCCCCCCCOC(=O)c1cc(O)c(O)c(O)c1 [NC-072] | 134.4 |
| O=C(O)c1ccccc1C(=O)O [NC-073] | 143.7 |
| Oc1cc(O)c2c(c1)O[C@H](c1ccc(O)c(O)c1)[C@H](O)[C@H]2c1c(O)cc(O)c2c1O[C@H](c1ccc(O)c(O)c1)[C@@H](O)C2 [NC-074] | 128.1 |
| Oc1cc(O)c2c(c1)O[C@H](c1ccc(O)c(O)c1)[C@H](O)[C@H]2c1c(O)cc(O)c2c1O[C@H](c1ccc(O)c(O)c1)[C@H](O)C2 [NC-075] | 93.7 |
| CCCOC(=O)c1cc(O)c(O)c(O)c1 [NC-076] | 33.6 |
| O=C(O)c1ccc(O)c(O)c1 [NC-077] | 21.1 |
| Oc1cccc(O)c1O [NC-078] | 22.7 |
| O=c1c(O)c(-c2ccc(O)c(O)c2)oc2cc(O)c(O)c(O)c12 [NC-079] | 90.2 |
| O=c1c(O)c(-c2ccc(O)c(O)c2)oc2cc(O)cc(O)c12 [NC-080] | 125.8 |
| COc1cc(O)c2c(=O)c(OC)c(-c3ccc(OC)c(OC)c3)oc2c1 [NC-081] | 65.0 |
| C[C@@H]1O[C@@H](Oc2c(-c3ccc(O)c(O)c3)oc3cc(O)cc(O)c3c2=O)[C@H](O)[C@H](O)[C@H]1O.O.O [NC-083] | 11.4 |
| O=C(O)[C@]1(O)C[C@@H](O)[C@@H](O)[C@H](O)C1 [NC-084] | 98.2 |
| Oc1cccc(O)c1 [NC-085] | 83.0 |

From publication PMC3242765, “Inhibitors of Alphavirus Entry and Replication Identified with a Stable Chikungunya Replicon Cell Line and Virus-Based Assays” (PLoS ONE, 2011)
